Series [1] in a line: Solubility assay (kinetic solubility, PBS pH 7). In kind it is physicochemical. As to conditions: pH 7, PBS; for solubility kinetic: pH 7, aqueous buffer, kinetic from dmso stock, read-out: Solubility. The procedure: The standard reference solutions were prepared by diluting the 10 mM stock in 10:80:10 solution of acetonitrile:methanol:DMSO to 100 µM.
The solubility value is calculated by the following equation:
Solubility [µM] = (Peak area of sample/ Peak area of standard) (Standard concentration)

Series [2] can be described thus: Lactate dehydrogenase (LDH) release assay. In kind it is cell-based. The procedure: (§1) HCT116 cells were stably transfected with a p53 responsive β-lactamase reporter and expanded in McCoy’s 5 A Medium with 10% fetal bovine serum (FBS), Blasticidin, and Penicillin/Streptomycin and then transferred to 1.5 ml freezing vials and stored under liquid nitrogen in growth media containing 5% DMSO. […] The cells were then seeded into a 384-well plate at a density of 8000 cells per well. […] The final working concentration of DMSO was 0.5%. Lactate dehydrogenase release was detected using the CytoTox-ONE Homogenous Membrane Integrity Assay Kit (Promega), as per the manufacturer’s instructions. Measurements were carried out using the Tecan plate reader. […] Measurements were taken a minimum of three times (biological replicates) and values are reported as geometric means of the replicates.

Series [3] can be described thus: Experimental LogD (partition coefficient). As to conditions: for logD: not stated, Partition Coeff LogD.
The subject of another series is HCT116 cells. The series can be described thus: Lactate dehydrogenase (LDH) release assay. Format: cell-based. The protocol: as §1
Setting [4] is: 0% FBS 4Hr, read-out: LDH: Cytotoxicity assay EC50.
[5] abbreviates: 10% FBS 16Hr, read-out: LDH: Cytotoxicity assay EC50.
Where [6] appears, read: 0% FBS 4Hr, read-out: LDH: Cytotoxicity assay: EC50.

Converted amounts (≈) assume the structure as drawn. Read-outs that look alike come from different tables or passages of the source. Positions of bridges follow the written chain, without caps; N, C: chain ends. Non-standard residues stand in square brackets, D forms with d. Residues, ends and D or L forms follow the SMILES beside them. Lys(N3) = [N-]=[N+]=NCCCC[C@H](N)C(=O)O; Lys(Me2) = CN(C)CCCC[C@H](N)C(=O)O; R8 = C=CCCCCCC[C@@](C)(N)C(=O)O; Cba = N[C@@H](CC1CCC1)C(=O)O; S5 = C=CCCC[C@](C)(N)C(=O)O; Aib = CC(C)(N)C(=O)O; Ahx = NCCCCCC(=O)O; βAla = NCCC(=O)O; Sar = CNCC(=O)O Where only a bound is given, the exact number is not on record here.

Turning to `CC(=O)N[C@@H](CCCCN=[N+]=[N-])C(=O)N[C@@H](CCCCN)C(=O)N[C@@H](CCCCN)C(=O)NCCCCCC(=O)N[C@H](C(=O)N[C@@H](CO)C(=O)N[C@@H](Cc1ccccc1)C(=O)N[C@]1(C)CCCCCCC=CCCC[C@@](C)(C(=O)N[C@@H](CCC(=O)O)C(=O)N[C@@H](CC(N)=O)C(=O)N[C@@H](Cc2ccccc2)C(N)=O)NC(=O)[C@H](CC(C)C)NC(=O)[C@H](CC(C)C)NC(=O)[C@H](C)NC(=O)[C@H](Cc2c[nH]c3ccccc23)NC(=O)[C@H](Cc2ccc(O)cc2)NC(=O)[C@H](CCC(=O)O)NC1=O)[C@@H](C)O` [MP-082] (Ac-[Lys(N3)]KK[Ahx]TSF[R8]EYWALL[S5]ENF-NH2; staple 8-15), in series [1], the solubility kinetic came to 2 µM (≈ 4.75 µg/mL). Moreover, the half-maximal effective concentration (EC50) (usually the midpoint of the concentration-response curve) in series [2] (LDH: Cytotoxicity assay EC50) was above 50 µM. Also, in series [3], the logD (usually lipophilicity at a set pH, counting ionised and neutral species) came to 2.46.
The like results for `CC(=O)N[C@@H](CCCCN=[N+]=[N-])C(=O)N[C@@H](CCCCN)C(=O)N[C@@H](CCCCN)C(=O)N[C@@H](CCCCN)C(=O)NCCCCCC(=O)N[C@H](C(=O)N[C@@H](CO)C(=O)N[C@@H](Cc1ccccc1)C(=O)N[C@]1(C)CCCCCCC=CCCC[C@@](C)(C(=O)N[C@@H](CCC(=O)O)C(=O)N[C@@H](CC(N)=O)C(=O)N[C@@H](Cc2ccccc2)C(N)=O)NC(=O)[C@H](CC(C)C)NC(=O)[C@H](CC(C)C)NC(=O)[C@H](C)NC(=O)[C@H](Cc2c[nH]c3ccccc23)NC(=O)[C@H](Cc2ccc(O)cc2)NC(=O)[C@H](CCC(=O)O)NC1=O)[C@@H](C)O` [MP-085] (Ac-[Lys(N3)]KKK[Ahx]TSF[R8]EYWALL[S5]ENF-NH2; staple 9-16) were, in that order, 2 µM (≈ 5.01 µg/mL), above 50 µM and 2.39.
As to `CC(=O)N[C@@H](CC(C)C)C(=O)N[C@H](C(=O)N[C@@H](Cc1ccccc1)C(=O)N[C@]1(C)CCCCCCC=CCCC[C@@](C)(C(=O)N[C@@H](CO)C(=O)N[C@@H](C)C(=O)N[C@@H](C)C(N)=O)NC(=O)[C@H](CC2CCC2)NC(=O)[C@H](CCC(N)=O)NC(=O)[C@H](C)NC(=O)[C@H](Cc2c[nH]c3cc(Cl)ccc23)NC(=O)[C@H](Cc2ccc(O)cc2)NC(=O)[C@H](CCC(=O)O)NC1=O)[C@@H](C)O` [MP-192], the Solubility result in series [1] was “Poorly Behaved”. In series [2] (LDH: Cytotoxicity assay: EC50), this molecule had an EC50 of 19.9 µM. For the same molecule, the “Partition Coeff LogD” value in series [3] is reported as “Poorly Behaved”.
For `CC(=O)N[C@@H](CCCCN=[N+]=[N-])C(=O)NCCC(=O)N[C@@H](CC(C)C)C(=O)N[C@H](C(=O)N[C@@H](Cc1ccccc1)C(=O)N[C@]1(C)CCCCCCC=CCCC[C@@](C)(C(=O)N[C@@H](C)C(=O)N(C)CC(=O)N(C)CC(=O)N(C)CC(=O)N(C)CC(=O)N(C)CC(N)=O)NC(=O)[C@H](CC2CCC2)NC(=O)[C@H](CCC(N)=O)NC(=O)[C@H](C)NC(=O)[C@H](Cc2c[nH]c3ccccc23)NC(=O)[C@H](Cc2ccc(O)cc2)NC(=O)[C@H](CCC(=O)O)NC1=O)[C@@H](C)O` [MP-443] (Ac-[Lys(N3)][βAla]LTF[R8]EYWAQ[Cba][S5]A[Sar][Sar][Sar][Sar][Sar]-NH2; staple 6-13), in series [1], the solubility kinetic stood at 180 µM (≈ 390 µg/mL). The “LDH: Cytotoxicity assay % Effect” value in the series on HCT116 cells (0% FBS 4Hr) is 8.392%; in the series on HCT116 cells (10% FBS 16Hr) it was 2.311%. In addition, the EC50 in series [2] (setting [4]) and in series [2] (setting [5]) was above 50.7 µM in each case.
In the case of `CC(=O)N[C@@H](CCCCN=[N+]=[N-])C(=O)N[C@H](C(=O)N[C@@H](Cc1ccccc1)C(=O)N[C@]1(C)CCCCC#CC#CCCC[C@@](C)(C(=O)N[C@@H](CCC(=O)O)C(=O)N[C@@H](C)C(=O)N[C@@H](Cc2ccccc2)C(=O)N[C@@H](C)C(=O)N[C@@H](C)C(=O)N[C@@H](Cc2ccccc2)C(N)=O)NC(=O)[C@H](CC2CCC2)NC(=O)[C@H](CCC(N)=O)NC(=O)[C@H](C)NC(=O)[C@H](Cc2c[nH]c3ccccc23)NC(=O)[C@H](Cc2ccc(O)cc2)NC(=O)[C@H](CCC(=O)O)NC1=O)[C@@H](C)O` [MP-444, Ac-K(N3)-TF(X)EYWAQ(Cba)(X)EAFAAF-NH2], in series [1], the solubility kinetic is 167 µM (≈ 365 µg/mL). Also, the “LDH: Cytotoxicity assay % Effect” value is 17.89% in the series on HCT116 cells (0% FBS 4Hr) and 4.968% with HCT116 cells (10% FBS 16Hr). For the same molecule, the EC50 in series [2] (setting [4]) and in series [2] (setting [5]) was above 50.7 µM in each case.
Turning to `CC(=O)N[C@@H](CCCCN=[N+]=[N-])C(=O)NCCC(=O)N[C@@H](CC(C)C)C(=O)N[C@H](C(=O)N[C@@H](Cc1ccccc1)C(=O)N[C@]1(C)CCCCC#CC#CCCC[C@@](C)(C(=O)N[C@@H](C)C(=O)N[C@@H](C)C(=O)N[C@@H](C)C(=O)N[C@@H](C)C(=O)N[C@@H](C)C(=O)N[C@H](C)C(N)=O)NC(=O)[C@H](CC2CCC2)NC(=O)[C@H](CCC(N)=O)NC(=O)[C@H](C)NC(=O)[C@H](Cc2c[nH]c3ccccc23)NC(=O)[C@H](Cc2ccc(O)cc2)NC(=O)[C@H](CCC(=O)O)NC1=O)[C@@H](C)O` [MP-616], the entries for the “LDH: Cytotoxicity assay: % Effect” value in the series on HCT116 cells (0% FBS 4Hr) and with HCT116 cells (10% FBS 16Hr) were 12.87% and 8.138%, respectively. Further, the EC50 in series [2] (setting [6]) was above 50.7 µM; in series [2] (10% FBS 16Hr, read-out: LDH: Cytotoxicity assay: EC50), above 50.7 µM. The logD in series [3] came to 2.67.
As to `CC(=O)N[C@@H](CCCCN=[N+]=[N-])C(=O)NCCC(=O)N[C@@H](CC(C)C)C(=O)N[C@H](C(=O)N[C@@H](Cc1ccccc1)C(=O)N[C@]1(C)CCCCCCC=CCCC[C@@](C)(C(=O)N[C@@H](CO)C(=O)N[C@@H](C)C(=O)N[C@@H](C)C(N)=O)NC(=O)[C@H](CC2CCC2)NC(=O)[C@H](CCC(N)=O)NC(=O)[C@H](C)NC(=O)[C@H](Cc2c[nH]c3cc(Cl)ccc23)NC(=O)[C@H](Cc2ccc(CP(=O)(O)O)cc2)NC(=O)[C@H](CCC(=O)O)NC1=O)[C@@H](C)O` [MP-891], the “LDH: Cytotoxicity assay: % Effect” value in the series with HCT116 cells (0% FBS 4Hr) was 3.299%. For the same molecule, in series [2] (setting [6]), the EC50 is above 50.6 µM.
With `CC(=O)N[C@H](C(=O)N[C@@H](CO)C(=O)N[C@@H](Cc1ccccc1)C(=O)NC(C)(C)C(=O)N[C@@H](CCC(=O)O)C(=O)N[C@@H](Cc1ccc(O)cc1)C(=O)N[C@@H](Cc1c[nH]c2ccccc12)C(=O)N[C@@H](C)C(=O)N[C@@H](CC(C)C)C(=O)N[C@@H](CC1CCC1)C(=O)NC(C)(C)C(N)=O)[C@@H](C)O` [MP-1154] (Ac-TSF[Aib]EYWAL[Cba][Aib]-NH2), in the series on HCT116 cells, the “LDH: Cytotoxicity assay % Effect” value is given as 17.78%. Further, the EC50 in series [2] (LDH: Cytotoxicity assay EC50) was above 50 µM.
The like results for `CC(=O)N[C@@H](CCCCN(C)C)C(=O)N[C@@H](CCCCN(C)C)C(=O)NCCCCCC(=O)N[C@H](C(=O)N[C@@H](CO)C(=O)N[C@@H](Cc1ccccc1)C(=O)N[C@]1(C)CCCCCCC=CCCC[C@@](C)(C(=O)N[C@@H](CCC(=O)O)C(=O)N[C@@H](CC(N)=O)C(=O)N[C@@H](Cc2ccccc2)C(N)=O)NC(=O)[C@H](CC(C)C)NC(=O)[C@H](CC(C)C)NC(=O)[C@H](C)NC(=O)[C@H](Cc2c[nH]c3ccccc23)NC(=O)[C@H](Cc2ccc(O)cc2)NC(=O)[C@H](CCC(=O)O)NC1=O)[C@@H](C)O` [MP-2042] (Ac-[Lys(Me2)][Lys(Me2)][Ahx]TSF[R8]EYWALL[S5]ENF-NH2; staple 7-14) were, in that order, 5.569% and above 50 µM.
Taken in the same sequence, the figures for `CC(=O)N[C@H](C(=O)N[C@@H](CCCNC(N)=O)C(=O)N[C@H](C(=O)N[C@@H](CO)C(=O)N[C@@H](Cc1ccccc1)C(=O)N[C@]1(C)CCCCCCC=CCCC[C@@](C)(C(N)=O)NC(=O)[C@H](CC(C)C)NC(=O)[C@H](CC(C)C)NC(=O)[C@H](C)NC(=O)[C@H](Cc2c[nH]c3ccccc23)NC(=O)[C@H](Cc2ccc(O)cc2)NC(=O)[C@H](CCC(=O)O)NC1=O)[C@@H](C)O)C(C)C` [MP-9667] were 5.511% and above 50 µM.

The record behind these values is PMC10786919, “Design-rules for stapled peptides with in vivo activity and their application to Mdm2/X antagonists” (Nature Communications, 2024).
